Source: paper PMC11770985 (Journal of proteome research, 2024)
Ends that are not written are not given here.

| Substance | change of nuclear accumulation after 24 hours of cell exposure (Huh-7 cells) | mean nuclear abundance (Huh-7 cells) | mean cytoplasmic abundance (HEK293T cells) | mean cytoplasmic abundance (HUVEC cells) | mean cytoplasmic abundance (Kasumi-1 cells) |
| --- | --- | --- | --- | --- | --- |
| RLALRLALRALRAALRLAGCYGRKKRRQRRR [RLAL-TAT-[barcode108]] | time-dependent increase in nuclear accumulation | 196 millions of molecules/cell |  |  |  |
| KLALKLALKALKAALKLAGAYGRKKRRQRRRAFSVDAETLWR-NH2 [KLAL-TAT-[barcode82]] |  |  | 31 millions of molecules/cell | 0 millions of molecules/cell | 15 millions of molecules/cell |
